Assay results from patent US11053204B2, “Pyrimidinyloxy benzene derivatives as herbicides” (FMC Corporation, priority 2015, dated 2021).

Columns and labels:
Assay type in all cases: in vivo
[1] = system: Italian ryegrass (Lolium multiflorum); test: Test A preemergence, visual injury rating
Procedure, shortened: (§1)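 Visual injury scored 0–100 (100 = complete control) against untreated controls about 10 days after treatment in a greenhouse. Test chemicals, formulated with surfactant in non-phytotoxic solvent, were sprayed on soil preemergence or on 2-10 cm, one- to two-leaf plants postemergence.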

kochia (Kochia scoparia) [2] = test: Test A preemergence, visual injury rating
Procedure, shortened: as §1

[3] = system: ragweed (common ragweed, Ambrosia elatior); test: Test A preemergence, visual injury rating
Procedure, shortened: as §1

[4] = system: barnyardgrass (Echinochloa crus-galli); test: Test A preemergence, visual injury rating
Procedure, shortened: as §1

[5] = system: giant foxtail (Setaria faberii); test: Test A preemergence, visual injury rating
Procedure, shortened: as §1

[6] = system: pigweed (Amaranthus retroflexus); test: Test A preemergence, visual injury rating
Procedure, shortened: as §1

rice (Oryza sativa) = test: Test B flooded paddy test, plant response rating; settings: 250 g ai/ha; Flood; scale of 0 to 100 where 0 is no effect and 100 is complete control; 13 to 15 days
Procedure, shortened: (§2)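 Visual injury ratings against untreated controls, taken 13 to 15 days after compound was added to paddy water standing 3 cm above the soil.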

[7] = system: ducksalad (Heteranthera limosa); test: Test B flooded paddy test, plant response rating; settings: 250 g ai/ha; Flood; scale of 0 to 100 where 0 is no effect and 100 is complete control; 13 to 15 days
Procedure, shortened: as §2

[8] = system: barnyardgrass (Echinochloa crus-galli); test: Test B flooded paddy test, plant response rating; settings: 250 g ai/ha; Flood; scale of 0 to 100 where 0 is no effect and 100 is complete control; 13 to 15 days
Procedure, shortened: as §2

[9] = system: sedge, umbrella (small-flower umbrella sedge, Cyperus difformis); test: Test B flooded paddy test, plant response rating; settings: 250 g ai/ha; Flood; scale of 0 to 100 where 0 is no effect and 100 is complete control; 13 to 15 days
Procedure, shortened: as §2

[10] = system: Italian ryegrass (Lolium multiflorum); test: Test A postemergence, visual injury rating; settings: 0 to 100 scale, 0 is no effect, 100 is complete control, approximately 10 days
Procedure, shortened: as §1

kochia (Kochia scoparia) [11] = test: Test A postemergence, visual injury rating; settings: 0 to 100 scale, 0 is no effect, 100 is complete control, approximately 10 days
Procedure, shortened: as §1

[12] = system: galium (catchweed bedstraw, Galium aparine); test: Test A postemergence, visual injury rating; settings: 0 to 100 scale, 0 is no effect, 100 is complete control, approximately 10 days
Procedure, shortened: as §1

[13] = system: blackgrass (Alopecurus myosuroides); test: Test A postemergence, visual injury rating; settings: 0 to 100 scale, 0 is no effect, 100 is complete control, approximately 10 days
Procedure, shortened: as §1

[14] = system: ragweed (common ragweed, Ambrosia elatior); test: Test A postemergence, visual injury rating; settings: 0 to 100 scale, 0 is no effect, 100 is complete control, approximately 10 days
Procedure, shortened: as §1

[15] = system: barnyardgrass (Echinochloa crus-galli); test: Test A postemergence, visual injury rating; settings: 0 to 100 scale, 0 is no effect, 100 is complete control, approximately 10 days
Procedure, shortened: as §1

[16] = system: wheat (Triticum aestivum); test: Test A postemergence, visual injury rating; settings: 0 to 100 scale, 0 is no effect, 100 is complete control, approximately 10 days
Procedure, shortened: as §1

corn (Zea mays) = test: Test A postemergence, visual injury rating; settings: 0 to 100 scale, 0 is no effect, 100 is complete control, approximately 10 days
Procedure, shortened: as §1

[17] = system: giant foxtail (Setaria faberii); test: Test A postemergence, visual injury rating; settings: 0 to 100 scale, 0 is no effect, 100 is complete control, approximately 10 days
Procedure, shortened: as §1

[18] = system: pigweed (Amaranthus retroflexus); test: Test A postemergence, visual injury rating; settings: 0 to 100 scale, 0 is no effect, 100 is complete control, approximately 10 days
Procedure, shortened: as §1

[19] = 31 g ai/ha, 0 to 100 scale, 0 no effect, 100 complete control
[20] = 125 g ai/ha, 0 to 100 scale (0 no effect, 100 complete control)

SMILES | Plant response rating, Ryegrass, Italian [1, 19] | Plant response rating, Ryegrass, Italian [1, 20] | Plant response rating, Kochia (kochia (Kochia scoparia) [2]; [19]) | Plant response rating, Kochia (kochia (Kochia scoparia) [2]; [20]) | Plant response rating, Ragweed [3, 19] | Plant response rating, Ragweed [3, 20] | Plant response rating, Barnyardgrass [4, 19] | Plant response rating, Barnyardgrass [4, 20] | Plant response rating, Foxtail, Giant [5, 19] | Plant response rating, Foxtail, Giant [5, 20] | Plant response rating, Pigweed [6, 19] | Plant response rating, Pigweed [6, 20] | Plant response rating, Rice (rice (Oryza sativa)) | Plant response rating, Ducksalad [7] | Plant response rating, Barnyardgrass [8] | Plant response rating, Sedge, Umbrella [9] | Ryegrass, Italian plant response rating ([10]; 31 g ai/ha) | Ryegrass, Italian plant response rating ([10]; 125 g ai/ha) | Kochia plant response rating (kochia (Kochia scoparia) [11]; 31 g ai/ha) | Kochia plant response rating (kochia (Kochia scoparia) [11]; 125 g ai/ha) | also measured
FC(F)(F)CCCCCc1c(Br)cccc1Oc1ncc(Cl)cn1 [Compound 121] | 10 | 0 | 20 | 0 | 0 | 0 | 0 | 30 | 30 | 100 | 0 | 0 | 35 | 0 | 50 | 70 | 10 | 20 | 20 | 80 | Galium plant response rating ([12]; 31 g ai/ha): 70; Galium plant response rating ([12]; 125 g ai/ha): 80; Blackgrass plant response rating ([13]; 31 g ai/ha): 20; Blackgrass plant response rating ([13]; 125 g ai/ha): 30; Ragweed plant response rating ([14]; 31 g ai/ha): 20; Ragweed plant response rating ([14]; 125 g ai/ha): 50; Barnyardgrass plant response rating ([15]; 31 g ai/ha): 20; Barnyardgrass plant response rating ([15]; 125 g ai/ha): 40; Wheat plant response rating ([16]; 31 g ai/ha): 10; Wheat plant response rating ([16]; 125 g ai/ha): 10; Corn plant response rating (corn (Zea mays); 31 g ai/ha): 10; Corn plant response rating (corn (Zea mays); 125 g ai/ha): 10; Foxtail, Giant plant response rating ([17]; 31 g ai/ha): 10; Foxtail, Giant plant response rating ([17]; 125 g ai/ha): 70; Pigweed plant response rating ([18]; 31 g ai/ha): 80; Pigweed plant response rating ([18]; 125 g ai/ha): 100
FC(F)(F)CCCc1c(Cl)cccc1Oc1ncc(Cl)cn1 [Compound 122] | 0 | 30 | 10 | 70 | 0 | 0 | 30 | 90 | 0 | 40 | 40 | 90 | 40 | 100 | 80 | 100 | 0 | 20 | 80 | 80 | Galium plant response rating ([12]; 31 g ai/ha): 30; Galium plant response rating ([12]; 125 g ai/ha): 60; Blackgrass plant response rating ([13]; 31 g ai/ha): 20; Blackgrass plant response rating ([13]; 125 g ai/ha): 60; Ragweed plant response rating ([14]; 31 g ai/ha): 0; Ragweed plant response rating ([14]; 125 g ai/ha): 10; Barnyardgrass plant response rating ([15]; 31 g ai/ha): 10; Barnyardgrass plant response rating ([15]; 125 g ai/ha): 50; Wheat plant response rating ([16]; 31 g ai/ha): 0; Wheat plant response rating ([16]; 125 g ai/ha): 0; Corn plant response rating (corn (Zea mays); 31 g ai/ha): 10; Corn plant response rating (corn (Zea mays); 125 g ai/ha): 20; Foxtail, Giant plant response rating ([17]; 31 g ai/ha): 10; Foxtail, Giant plant response rating ([17]; 125 g ai/ha): 40; Pigweed plant response rating ([18]; 31 g ai/ha): 70; Pigweed plant response rating ([18]; 125 g ai/ha): 100
O=C(OCCC1CC1)c1c(Br)cccc1Oc1ncc(Cl)cn1 [Compound 123] | 0 | 20 | 0 | 10 | 0 | 0 | 20 | 70 | 40 | 100 | 0 | 80 | 35 | 95 | 40 | 95 | 0 | 20 | 50 | 90 | Galium plant response rating ([12]; 31 g ai/ha): 90; Galium plant response rating ([12]; 125 g ai/ha): 100; Blackgrass plant response rating ([13]; 31 g ai/ha): 10; Blackgrass plant response rating ([13]; 125 g ai/ha): 50; Ragweed plant response rating ([14]; 31 g ai/ha): 0; Ragweed plant response rating ([14]; 125 g ai/ha): 10; Barnyardgrass plant response rating ([15]; 31 g ai/ha): 10; Barnyardgrass plant response rating ([15]; 125 g ai/ha): 50; Wheat plant response rating ([16]; 31 g ai/ha): 0; Wheat plant response rating ([16]; 125 g ai/ha): 0; Corn plant response rating (corn (Zea mays); 31 g ai/ha): 10; Corn plant response rating (corn (Zea mays); 125 g ai/ha): 10; Foxtail, Giant plant response rating ([17]; 31 g ai/ha): 20; Foxtail, Giant plant response rating ([17]; 125 g ai/ha): 50; Pigweed plant response rating ([18]; 31 g ai/ha): 70; Pigweed plant response rating ([18]; 125 g ai/ha): 100
